In US20040220164A1, “Triaza compound immunoregulatory agents” (priority 2001, published 2004):
pIC50: −log10 of the molar value. Where two headings read alike, the source gives them in different places.

Legend:
CD4 [1] = biological target: T1, CD4 (Homo sapiens, UniProt P01730); assay: Quantification of the CD4 receptor by antibody binding; assay type: cell-based; design: endogenous in cells; the paragraph deals with MT-4, SupT1 cells and PBMCs; conditions: after treatment with CADA
Experimental: Table 4 presents the results for MT-4 cells pretreated with CADA for 1 day at 8.1 μM and then infected with the HIV-1 strain NL4.3 or RF in the presence or absence of CADA. […] As three CD4 binding events are needed to efficiently activate HIV-1 Env trimers (Layne, S. P., et al., Nature 346: 602-605 (1990)), multimeric CD4 binding is required for HIV infection, further confirming that receptor density plays a crucial role in the efficiency of viral infectivity (Platt, E. J., et al., J. Virol. 71: 883-890 (1997)). […] Primary HIV isolates seem to be much more dependent on the level of CD4 expression (Kabat; D., et al., J. Virol. 68:2570-2577 (1994)). […] Although CD4-independent viruses are described (Hofflian, T. L., et al., Proc. Natl. Acad. Sci. U.S.A. 96: 63 59-6364 (1999)), these are much more sensitive to neutralization by antibodies, which explains the rarity of CD4-independent wild-type HIV variants (Kolchinski, P., et al., J. Virol. 75: 204 1-2050 (2001)).

CD4 [2] = biological target: T1, CD4; assay: Intracellular CD4 staining; assay type: cell-based; design: To study the effect of the CADA derivatives on surface CD4 antigen expression, MT-4 and SupT1 cells were incubated; endogenous in cells; host or cells: MT-4, SupT1, PBMC; conditions: SupT1 cells, CADA 3.2 μM, 4 days; untreated 97.3%
Experimental: FIGS. 3A-3B. Intracellular CD4 staining in SupT1 cells after incubation with CADA hydrochloride (3.2 μM) for 4 days. (A) The intracellular CD4 expression of SupT1 cells cultured in medium alone and (B) treated with CADA for 4 days.
The effect of CADA on the intracellular presence of CD4 was also investigated. […] Similar results were also obtained in MT-4 cells and in PBMCs, and with two other anti-CD4 mAbs (OKT4A and OKT4).

[3] = test system: CCR5-using (R5) HIV-1 strain BaL; assay: Anti-HIV-1 assay (p24 Ag ELISA); assay type: cell-based; conditions: Human immunodeficiency virus 1, BAL, PBMC; read-out: IC50 against HIV-1 BaL
Experimental: (§1) The antiviral activity of CADA against HIV-1 and RHV-7 was investigated. PBMCs and […] cell-depleted PBMCs (removed with CD8 magnetic beads; Dynal AS, Oslo, Norway), previously activated with purified PHA (2 μg/ml) and rhIL-2 (1 ng/ml) for 3 days, were pelleted and exposed to HIV-1 (1 ng p24 Ag per 10^6 cells) for 2 hours at 370C. Then the cells were washed three times with warm medium and cultured in complete medium containing rhIL-2 (1 ng/ml) in the presence or absence of different concentrations of CADA hydrochloride. The anti-HIV-1 assays were also performed in MT-4 and SupT1 cells. CADA hydrochloride was diluted in the plates, then the MT-4 cells or SupT1 cells were added and finally the T-tropic HIV-1 strains. The supernatant was collected at day 5 for MT-4 cells, day 8 for SupT1 cells and day 12 for PBMCs, and stored at −20° C. and analyzed for HIV-1 core antigen by p24 Ag ELISA (NEN, Brussels, Belgium). The SupT1 cells were refreshed on day 4, and half of the medium and cells were replaced and fresh CADA-free medium was added. For the PBMCs, fresh culture medium was added at day 6 containing rhIL-2 (but no CADA). For the anti-HHV-7 assays in PBMCs, CADA hydrochloride was diluted in a plate, 2×10˜cells were added and then HHV-7 (KHR strain) was added in complete medium containing rhIL-2 (1 ng/ml). Fresh culture medium was added again at day 6 containing rhIL-2 (but no CADA). The same infection protocol was used for the SupT1 cells, but without rhIL-2. The SupT1 cells were refreshed on day 4 and day 8, half of the medium and the cells were replaced, and fresh medium without CADA was added. The HHV-7 antigen expression was monitored (at day 12) with a specific mAb to HHV-7 (RK-4) (Advanced Biotechnologies, Columbia, Md.) by flow cytometry, as described previously (Thang, Y., et al., Antiviral Res. 43:23-35 (1999)).

HIV-1 strain IIIB = assay: Anti-HIV-1 assay (p24 Ag ELISA); assay type: cell-based; conditions: Human immunodeficiency virus 1, IIIB, read-out: IC50 against HIV-1 IIIB
Experimental: as §1

[4] = Cytotoxic concentration (Example 2); assay type: cell-based; conditions: human, SupT1 cells; read-out: cytotoxic concentration (CC50)
CD57 = assay: Cell surface antigen expression by flow cytometry (Table 2); assay type: cell-based, human; conditions: CADA 16 μM, 4 days, percentage of positive cells, unit not given
Experimental: (§2) Expression of various other surface antigens was also examined in MT-4 cells, SupT1 cells and PBMCs after incubation with CADA (16 μM) or CADA-free medium at 37° C. for 4 days. After washing with phosphate-buffered saline (PBS) containing 2% FCS(fetal calf serum), the cells were incubated with mAb (as indicated in Table 1) for 20 min at 4° C. Then the cells were washed, fixed with 1% formaldehyde and analyzed by flow cytometry. All mAbs were purchased from Becton-Dickinson (Erembodegem, Belgium).

CD3 = assay: as above; assay type: cell-based, human; conditions: CADA 16 μM, 4 days, percentage of positive cells, unit not given
Experimental: as §2

CD38 = assay: as above; assay type: cell-based, human; conditions: CADA 16 μM, 4 days, percentage of positive cells, unit not given
Experimental: as §2

CD2 = assay: as above; assay type: cell-based, human; conditions: CADA 16 μM, 4 days, percentage of positive cells, unit not given
Experimental: as §2

[5] = Cytotoxic concentration (Example 2); assay type: cell-based; conditions: human, PBMC

C=C1CN(S(=O)(=O)c2ccc(C)cc2)CCCN(Cc2ccccc2)CCCN(S(=O)(=O)c2ccc(C)cc2)C1 [CADA]
amount of CD4 Ab bound to the cells (CD4 [1]): approximately 5,000 /cell | decrease in bound antibody (CD4 [1]): ~90% | percentage of intracellular CD4 expression (CD4 [2]): 1.3% | pIC50 [3]: 6.10 | pIC50 (HIV-1 strain IIIB; MT4, MT-4 cells): 6.52 | pIC50 (HIV-1 strain IIIB; PBMC): 6.22 | pIC50 (HIV-1 strain IIIB; SUP-T1, SupT1 cells): 6.05 | CC50 [4]: 185000 nM | CD57 cell surface antigen expression (CD57; MT-4 T-cells): 1.5 | CD57 cell surface antigen expression (CD57; PBMCs): 2.3 | CD57 cell surface antigen expression (CD57; SupT1 T-cells): 82.4 | CD3 cell surface antigen expression (CD3; MT-4 T-cells): 5.9 | CD3 cell surface antigen expression (CD3; PBMCs): 89.4 | CD3 cell surface antigen expression (CD3; SupT1 T-cells): 2.7 | CD38 cell surface antigen expression (CD38; MT-4 T-cells): 84.5 | CD38 cell surface antigen expression (CD38; PBMCs): 73.2 | CD38 cell surface antigen expression (CD38; SupT1 T-cells): 99.1 | CD2 cell surface antigen expression (CD2; MT-4 T-cells): 2.6 | CD2 cell surface antigen expression (CD2; PBMCs): 90.7 | CD2 cell surface antigen expression (CD2; SupT1 T-cells): 0.5 | CC50 [5]: 73000 nM
